Values joined by “and” are separate entries in the source; they are usually repeats but may differ in a detail not shown here. Equal entries are not always repeated.
Key:
Settings in all cases: incubation time: 72 h
BT-474 [1] = assay: normalised viability (% of control), CellTiter-Blue; higher = more viable cells (100 = DMSO, 0 = benzethonium chloride kill control)
Method: (§1)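 DSRT, CellTiter-Blue viability, 72 h incubation. Signal is normalised to DMSO and benzethonium chloride controls. Value is the normalised response at dose 1.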

BT-549 [2] = assay: as above
Method: as §1

CAL-120 [3] = assay: as above
Method: as §1

CAL-148 [4] = assay: as above
Method: as §1

CAL-51 [5] = assay: as above
Method: as §1

CAL-85-1 [6] = assay: as above
Method: as §1

DU-4475 [7] = assay: as above
Method: as §1

HCC1143 [8] = assay: as above
Method: as §1

HCC1599 [9] = assay: as above
Method: as §1

HCC1937 [10] = assay: as above
Method: as §1

HDQ-P1 [11] = assay: as above
Method: as §1

Hs578T [12] = assay: as above
Method: as §1

MDA-MB-231 [13] = assay: as above
Method: as §1

MDA-MB-436 [14] = assay: as above
Method: as §1

MDA-MB-453 [15] = assay: as above
Method: as §1

MDA-MB-468 [16] = assay: as above
Method: as §1

MFM-223 [17] = assay: as above
Method: as §1

SK-BR-3 [18] = assay: as above
Method: as §1

BT-474 [19] = assay: normalised response (% of control), CellTiter-Glo; higher = more viable cells (100 = DMSO, 0 = benzethonium chloride kill control)
Procedure, shortened: (§2)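 Breast cancer cell lines, seeded at 20 µl suspension per well, were incubated for 72 h in 384-well plates containing compound at 5 concentrations. These concentrations rose in 10-fold steps over a 10,000-fold range set for each compound. CellTox Green fluorescence (485/520 nm) was read, then CellTiter-Glo luminescence after 10 min at room temperature, and each plate was normalised to 0.1 % DMSO (100) and a positive kill control (0). Values are normalised signals, each at one concentration.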

BT-549 [20] = assay: as above
Procedure, shortened: as §2

CAL-120 [21] = assay: as above
Procedure, shortened: as §2

CAL-148 [22] = assay: as above
Procedure, shortened: as §2

CAL-51 [23] = assay: as above
Procedure, shortened: as §2

CAL-85-1 [24] = assay: as above
Procedure, shortened: as §2

DU-4475 [25] = assay: as above
Procedure, shortened: as §2

HCC1143 [26] = assay: as above
Procedure, shortened: as §2

HCC1599 [27] = assay: as above
Procedure, shortened: as §2

HCC1937 [28] = assay: as above
Procedure, shortened: as §2

HDQ-P1 [29] = assay: as above
Procedure, shortened: as §2

Hs578T [30] = assay: as above
Procedure, shortened: as §2

MCF-10A = assay: as above
Procedure, shortened: as §2

MDA-MB-231 [31] = assay: as above
Procedure, shortened: as §2

MDA-MB-436 [32] = assay: as above
Procedure, shortened: as §2

MDA-MB-453 [33] = assay: as above
Procedure, shortened: as §2

MDA-MB-468 [34] = assay: as above
Procedure, shortened: as §2

MFM-223 [35] = assay: as above
Procedure, shortened: as §2

SK-BR-3 [36] = assay: as above
Procedure, shortened: as §2

SMILES | normalised viability (BT-474 [1]) | normalised viability (BT-549 [2]) | normalised viability (CAL-120 [3]) | normalised viability (CAL-148 [4]) | normalised viability (CAL-51 [5]) | normalised viability (CAL-85-1 [6]) | normalised viability (DU-4475 [7]) | normalised viability (HCC1143 [8]) | normalised viability (HCC1599 [9]) | normalised viability (HCC1937 [10]) | normalised viability (HDQ-P1 [11]) | normalised viability (Hs578T [12]) | normalised viability (MDA-MB-231 [13]) | normalised viability (MDA-MB-436 [14]) | normalised viability (MDA-MB-453 [15]) | normalised viability (MDA-MB-468 [16]) | normalised viability (MFM-223 [17]) | normalised viability (SK-BR-3 [18]) | normalised response (BT-474 [19]) | normalised response (BT-549 [20]) | normalised response (CAL-120 [21]) | normalised response (CAL-148 [22]) | normalised response (CAL-51 [23]) | normalised response (CAL-85-1 [24]) | normalised response (DU-4475 [25]) | normalised response (HCC1143 [26]) | normalised response (HCC1599 [27]) | normalised response (HCC1937 [28]) | normalised response (HDQ-P1 [29]) | normalised response (Hs578T [30]) | normalised response (MCF-10A) | normalised response (MDA-MB-231 [31]) | normalised response (MDA-MB-436 [32]) | normalised response (MDA-MB-453 [33]) | normalised response (MDA-MB-468 [34]) | normalised response (MFM-223 [35]) | normalised response (SK-BR-3 [36])
CC(=O)c1c(C)c2cnc(Nc3ccc(N4CCNCC4)cn3)nc2n(C2CCCC2)c1=O (1 nM) | 108% | 102% | 87.1% | 107% | 104% | 87.9% | 99% | 100% | 105% | 94.7% | 79.2% | 89.5% | 94.6% | 94.1% | 106% | 109% | 88.5% | 93.1% |  |  |  |  |  |  |  |  |  |  |  |  |  |  |  |  |  |  | 
COc1cc2c(cc1O)CC[C@@H]1[C@@H]2CC[C@]2(C)[C@@H](O)CC[C@@H]12 [2-methoxyestradiol] (1 nM) | 102% | 96.4% | 92.1% | 102% | 112% | 91.6% | 107% | 88.9% | 101% | 87.5% | 97.1% | 105% | 88.8% | 115% | 95.5% | 103% | 102% | 89.3% | 96.7% | 103% | 94.9% | 97.3% | 122% | 102% | 99% | 97.8% | 104% | 98.8% | 97.1% | 106% | 92.5% | 104% | 101% | 106% | 104% | 95.9% | 87.2%
Cc1sc2c(c1C)C(c1ccc(Cl)cc1)=N[C@@H](CC(=O)OC(C)(C)C)c1nnc(C)n1-2 [(+)JQ1] (1 nM) | 114% | 104% | 90.3% | 108% | 97.5% | 87.4% | 110% | 126% | 113% | 97.4% | 90.9% | 114% | 114% | 139% | 177% | 104% | 102% | 107% | 107% | 103% | 98.5% | 113% | 85% | 97.2% | 106% | 103% | 96.6% | 95.8% | 101% | 98.1% | 105% | 106% | 127% | 126% | 103% | 104% | 111%
Oc1ncnc2[nH]ncc12 [Allopurinol] (1 nM) | 97.2% | 92.2% | 111% | 119% | 92.5% | 112% | 109% | 106% | 91.2% | 78.6% | 108% | 95.6% | 93.5% | 102% | 116% | 109% | 96.2% | 91.7% | 101% | 106% | 100% | 100% | 95.1% | 99.3% | 102% | 108% | 101% | 98.2% | 101% | 103% | 108% | 101% | 99.9% | 113% | 109% | 105% | 117%
O=C1CN2Cc3c(ccc(Cl)c3Cl)N=C2N1 [Anagrelide] (1 nM) | 122% | 113% | 84.6% | 103% | 105% | 88.7% | 109% | 90.1% | 87.8% | 68.3% | 112% | 119% | 102% | 80.8% | 105% | 101% | 98.9% | 96.1% | 90.6% | 101% | 92.8% | 90.2% | 110% | 99.5% | 102% | 100% | 105% | 97.1% | 110% | 100% | 94% | 97.2% | 86% | 109% | 103% | 98.8% | 104%
Nc1ncn([C@@H]2O[C@H](CO)[C@@H](O)[C@H]2O)c(=O)n1 [Azacitidine] (1 nM) | 89.5% | 93.7% | 84.4% | 92% | 102% | 94.9% | 109% | 89.3% | 89.1% | 85% | 99.9% | 105% | 89.3% | 108% | 102% | 95.5% | 95.5% | 94.6% | 97.1% | 96.5% | 95.9% | 96.1% | 129% | 103% | 102% | 95.4% | 96.8% | 94% | 98.7% | 98.7% | 101% | 101% | 102% | 112% | 100% | 104% | 105%
CC(=O)O[C@@]12CO[C@@H]1C[C@H](O)[C@@]1(C)C(=O)[C@H](O)C3=C(C)[C@@H](OC(=O)[C@H](O)[C@@H](NC(=O)OC(C)(C)C)c4ccccc4)C[C@@](O)([C@@H](OC(=O)c4ccccc4)[C@H]21)C3(C)C [Docetaxel] (0.1 nM) | 104% and 90.1% | 92.9% and 96.3% | 96.5% and 94.7% | 107% and 110% | 104% and 92.1% | 101% and 106% | 109% and 110% | 107% and 111% | 119% and 123% | 81.5% and 83.6% |  | 99.7% and 96.5% | 110% and 94.6% | 91.9% and 106% | 118% and 98.6% | 96.8% and 100% | 100% and 102% | 103% and 105% | 98.8% | 104% | 104% | 90.8% | 94.5% | 102% | 96.7% | 96.3% | 101% | 94.5% | 96.2% | 93.2% | 98% | 102% | 105% | 99.7% | 106% | 96.9% | 99.3%
C[C@]12CC[C@@H]3c4ccc(OC(=O)N(CCCl)CCCl)cc4CC[C@H]3[C@@H]1CC[C@@H]2O [Estramustine] (0.099 nM) | 93.4% | 92.4% | 111% | 109% | 84% | 108% | 89.9% | 104% | 84.8% | 91.8% | 106% | 94.3% | 93.3% | 106% | 98.9% | 107% | 106% | 114% |  |  |  |  |  |  |  |  |  |  |  |  |  |  |  |  |  |  | 
C[C@]1(O)C[C@@H](c2nc(-c3ccc4ccc(-c5ccccc5)nc4c3)c3c(N)nccn32)C1 [OSI-906] (1 nM) | 82.9% | 95.7% | 97.4% | 94.6% | 95.6% | 100% | 89% | 96.8% | 100% | 92.3% | 74.5% | 101% | 83.7% | 85% | 85.7% | 100% | 95.6% | 91.1% |  |  |  |  |  |  |  |  |  |  |  |  |  |  |  |  |  |  | 
COc1cc(F)c(F)c(Nc2ccc(I)cc2F)c1NS(=O)(=O)C1(C[C@H](O)CO)CC1 [RDEA119] (1 nM) | 79.7% | 97.3% | 98.7% | 88.7% | 91.8% | 108% | 99.3% | 98.8% | 93% | 80.9% | 79.4% | 95.4% | 77.4% | 104% | 84.5% | 95.8% | 92.5% | 106% |  |  |  |  |  |  |  |  |  |  |  |  |  |  |  |  |  |  | 

Source: the supplement of paper PMC4862054
